This note sets out measurements from patent EP0103895A2, “Novel hydroxylamine derivatives, production and use thereof” (MEIJI SEIKA KABUSHIKI KAISHA, priority 1982, dated 1984).

“And” between values parts separate entries of the source, which are not always exact repeats. Equal entries are not always repeated. Where two headings read alike, the source gives them in different places.

Assay [1] relates to fowl roundworm (As. galli). In words: Anthelmintic test in chickens artificially infected with fowl roundworm, compound added to feed, E.P.G. and worm count up to 21st day (Test Examples A2, B2, C2, D2). It counts as in vivo, Ascaridia galli.
The subject of assay [2] is swine Oesophagostomum (Oesophagostomum dentatum). Briefly: Test of anthelmintic effect against swine Oesophagostomum in naturally infected pigs, E.P.G. on 7th day (Test Examples A8, B8, C8, D8). It counts as in vivo. Particulars: for anthelmintic effect: one administration of 20 mg/Kg. The procedure:
Six pigs infected with swine Oesophagostomum (naturally infected pigs) were employed by grouping them into groups each of two pigs.
As a control, only gelatin capsules were administered orally to the two pigs.
(§1) Before administration and on the 7th day after administration, fecal matter testing was conducted to calculate the E.P.G., and the anthelmintic effect was judged by the changing of the E.P.G. to negative.

The test system of assay [3] is canine filaria; Dirofilaria immitis. Briefly: Test of anthelmintic effect against canine filaria in naturally infected dogs, subcutaneous injection, microfilaria in blood and adult filaria at autopsy (Test Examples A10, B10, C10, D10). It counts as in vivo. The conditions noted are these: for inhibition in vivo at 20 mg/kg / inhibition in vivo at 30 mg/kg: Dirofilaria immitis, sc, 240 h. The procedure:
Eight dogs infected with canine filaria; Diro- filaria immitis (naturally infected dogs) were employed in groups each of two dogs.
The compounds provided for tests were Compound Nos. Al, A3 and A12. 20 mg of each was administered by subcutaneous injection per Kg of body weight to each of the two dogs as a suspension in 1% "Tween 80" solution once per day for three days. As control, 3 ml of the 1% "Tween 80" solution was subcutaneously injected into two dogs once per day for three days.
Before administration and on the 10th day after administration, 20 µl of earlobe blood of each dog was sampled and examined to determine the change in microfilaria (mf) according to the concentrated smear color method, and judgement on the effect on microfilaria (mf) was made. Judgement relating to adult filaria was made on the 10th day after the last administration by killing the dogs and carrying out autopsis.
30 mg of each compound was administered by subcutaneous injection per Kg of body weight to each of the two dogs as a suspension in 1% "Tween 80" solution once per day for three days. As control, 3 ml of the 1% "Tween 80" solution was subcutaneously injected into two dogs once per day for three days.
30 mg of each compound was administered by subcutaneous injection per Kg of body weight to each of two dogs as a suspension in 1% "Tween 80" solution once per day for three days. As control, 3 ml of the 1% "Tween 80" solution was subcutaneously injected to two dogs once per day for three days.
20 mg of each compound was administered by subcutaneous injection per kg of body weight once per day for three days to each of two dogs. These compounds were administered as a suspension in 1% "Tween 80" in the case of Compound No.Dl3 and as solutions dissolved in distilled water for injection in the case of Compounds Nos. D10 and D16, respectively. As control, 3 ml of the 1% "Tween 80" solution was subcutaneously injected into two dogs once per day for three days.

The test system of assay [4] is Liver fluke; Fasciola hepatica (F. hepatica). In words: Test of anthelmintic effect against rat infected experimentally with liver fluke (Test Examples A11, B11, C11, D11). The conditions noted are these: for anthelmintic effect: five administrations in a dose of 50 mg/Kg each. Set-up: key to Presence or absence of fluke egg in fecal matter On 21st day after the last administration: +: indicates detection of fluke egg; -: indicates no detection. It counts as in vivo. The source says:
Twenty-eight (28) rats were employed in fourteen groups each of two rats, each rat being infected with 5 metacercariae of Liver fluke; Fasciola he^patica (F.. hepatica) and confirmed to have worm eggs on the 75th day after infection according to fecal matter testing.
Judgement of the effect was made by the presence or absence of the worm gees in the fecal matter on the 21st day after the last administration and by examination according to autopsis as to whether the worm bodies were dead or alive in the liver.
The same as that in Test Example All, but eight (8) rats were employed by grouping them into groups each of two rats, each rat being infected with 5 metacercariae of liver fluke and confirmed to have fluke eggs on the 75th day after infection according to fecal matter testing.
The compounds provided for the tests were Compound Nos. Bl, B8 and B19.
The same as that in Test Example All, but six (6) rats were employed by grouping them into groups each of two rats, each rat being infected with 5 metacercariae of Fasciola hepatica and confirmed to have worm eggs on the 75th day after infection according to fecal matter testing.
The compounds provided for the tests were Compound Nos. C2 and C6.
The same as that in Test Example All, but the compounds provided for tests were Compound Nos. D14, D15 and D16.

Assay [5] deals with Diphyllobothrium erinacei. Briefly: Test of anthelmintic effect against Diphyllobothrium erinacei (tapeworm) in experimentally infected cats (Test Examples A5, B5, C5, D5). Particulars: for anthelmintic effect: 5 continuous administrations of 50 mg/Kg.
In assay [6] the test system is fowl roundworm (Ascaridia galli). In words: Anthelmintic test in chickens artificially infected with fowl roundworm, single oral dose in gelatin capsule, worm bodies counted within 48 hours (Test Examples A1, B1, C1, D1). It counts as in vivo. The conditions noted are these: Ascaridia galli, po, 48 h, chicken, chickens No.1-3, read-out: Anthelmintic effect after 48 hours; for inhibition in vivo at 30 mg/kg: 30 mg/Kg oral in gelatin capsule. In short, it runs like this: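 Groups of three chickens with confirmed Ascaridia galli infection given a single oral dose in gelatin capsule (10 and 20 mg/kg in A1 and B1; 30 and 50 mg/kg in C1; 15 and 30 mg/kg in D1). Worms expelled over 48 h and those remaining in the gut at necropsy counted to give anthelmintic percentage.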

For assay [7], the system named is canine strongyloides (Strongyloides stercoralis). Briefly: Anthelmintic test against canine strongyloides in naturally infected dogs, E.P.G. on 7th day (Test Examples A4, B4, C4, D4). It counts as in vivo. The procedure: Three dogs infected with canine strongyloides (naturally infected dogs) were employed by grouping them into a group of two and a group of one.
As control, only a gelatin capsule was administered orally to the one dog.
as §1
(§2) As control, only gelatin capsules were administered orally to the one dog.
as §2

[8] abbreviates: dogs, administration of 20 mg/Kg repeated three times, given as about 50% or more, read-out: anthelmintic effect against adult filaria.
Setting [9] is: dogs, 20 mg/Kg x 3 subcutaneously, autopsy on 10th day after the last administration, one value per dog, 20 mg/kg.
Where [10] appears, read: dogs, administration of 20 mg/Kg repeated three times.
[11] abbreviates: Ascaridia galli, feed or water, 504 h, chicken, 25 ppm in feed, read-out: Anthelmintic effect.
Where [12] appears, read: Ascaridia galli, feed or water, 504 h, chicken, 50 ppm in feed, read-out: Anthelmintic effect.

With `C#CCN(OCC=C)C(=O)c1ccc(F)cc1` [Compound A12, N-propargyl-N-(p-fluorobenzoyl)-O-allylhydroxylamine], in assay [1] (Ascaridia galli, po, 504 h, chickens, 10 ppm added to feed, worm count on 21st day, one value per chicken, read-out: Anthelmintic effect), the inhibition in vivo at 10 ppm was 80 to 90%. In assay [1] (Ascaridia galli, po, 504 h, chickens, 50 ppm added to feed, worm count on 21st day, one value per chicken, read-out: Anthelmintic effect), the inhibition in vivo at 50 ppm was determined as 100%. Also, the “Change of E.P.G. Before administration” value in assay [2] (pigs, 20 mg/Kg orally once, baseline, one value per pig, 20 mg/kg) was 2,100 E.P.G. and 1,500 E.P.G. For the same compound, in assay [2] (pigs, 20 mg/Kg orally once, one value per pig), the “Change of E.P.G. 7th day” value is 0 E.P.G. Also, the “anthelmintic effect” value in assay [2] (pigs) is given as “marked anthelmintic effect”; in assay [5] (cats), “marked anthelmintic effects”. Besides, the inhibition in vivo at 20 mg/kg in assay [3] (setting [8]) is not below 50%. The “Effect on adult filaria: Number of worms killed/Total parasites” value in assay [3] (setting [9]) was 13/21 and 15/26. Besides, in assay [3] (setting [9]), the “Effect on adult filaria: Percent of worms killed” value is 62% and 58%. The “Number of microfilaria/20 µl On 10th day after the last administration” value in assay [3] (dogs, 20 mg/Kg x 3 subcutaneously, earlobe blood, one value per dog) is 0 /20 µl. The “anthelmintic effect against microfilaria (mf)” value (“anthelmintic effect … (mf)” below) in assay [3] (setting [10]) is on record as “marked anthelmintic effect”. In assay [4] (rats, 50 mg/Kg x 5 orally, autopsy, liver, "Denatured" = fluke body is alive but a part of fluke body has changed, one value per rat), the “Condition of fluke body” value is “dead”. The “Presence or absence of fluke egg in fecal matter On 21st day after the last administration” value (“Presence or absence of fluke egg” below) in assay [4] (rats, 50 mg/Kg x 5 orally, one value per rat) is recorded as “-”. For the same compound, the “Number of worm bodies remaining in enteron” value in assay [5] (cats infected with 5 plerocercoids, 50 mg/Kg x 5 times orally, autopsy ten days after administration, one value per cat) was determined as 0. The “Worm egg detection on 10th day after administration” value in assay [5] (cats, 50 mg/Kg x 5 times orally, one value per cat (Table A7)) is listed as “-”.
Turning to `C=CCON(CC=C)C(=O)CC` [Compound C2], the inhibition in vivo at 30 mg/kg in assay [6] was 100%; in assay [3] (dog, 30 mg/Kg x 3, subcutaneous injection, read-out: Effect on adult filaria: Percent of worms killed) it was 62%; in assay [3] (dogs, administration of 30 mg/Kg repeated three times, given as about 50% or more, read-out: anthelmintic effect against adult filaria), not below 50%. Moreover, the inhibition in vivo at 50 mg/kg in assay [6] (50 mg/Kg oral in gelatin capsule) was determined as 100%. Besides, in assay [1] (setting [11]), the inhibition in vivo at 25 ppm is 100%. Also, in assay [1] (setting [12]), the inhibition in vivo at 50 ppm turned out to be 100%. The “Change of E.P.G. 21st day” value was 0 in assay [1] (chicken, 25 ppm in feed) and 0 in assay [1] (chicken, 50 ppm in feed). Also, the “Change of E.P.G. 7th day” value in assay [2] (pig, Oesophagostomum dentatum, 20 mg/Kg, one administration) was determined as 0. Also, the “Change of E.P.G. Before administration” value in assay [2] (pig, Oesophagostomum dentatum, before 20 mg/Kg (baseline)) was 1,700 and 1,200. For the same compound, the entries for the “anthelmintic effect” value in assay [2] (pigs), in assay [4] (rats) and in assay [5] (cats) were “marked anthelmintic effect”, “marked antihelmintic effect” and “marked anthelmintic effects”, respectively. Besides, the “Number of microfilaria/20 µl On 10th day after the last administration” value in assay [3] (dog, 30 mg/Kg x 3, subcutaneous injection, suspension in 1% Tween 80) is on record as 0 /20 µl. Besides, in assay [3] (dog, 30 mg/Kg x 3, subcutaneous injection, 30 mg/kg), the “Effect on adult filaria: Number of worms killed/ Total parasite” value is 5/8 and 8/13. In assay [3] (dogs, administration of 30 mg/Kg repeated three times), the “anthelmintic effect … (mf)” value was “marked anthelmintic effect”. Besides, the “Condition of fluke body” value in assay [4] (rat, 50 mg/Kg x 5) was “dead”. Moreover, the “Presence or absence of fluke egg” value in assay [4] (rat, 50 mg/Kg x 5) is “-”. Also, in assay [5] (cat, 50 mg/Kg x 5, oral in gelatin capsule), the “Number of worm bodies remaining in enteron” value worked out at 0. Moreover, in assay [5] (cat, 50 mg/Kg x 5, oral in gelatin capsule, once per day for 5 days), the “Worm egg detection on 10th day after administration” value is given as “-”.
On to `C#CCNOC.Cl` [Compound D16, N-propargyl-O-methylhydroxylamine hydrochloride], for which, in assay [6] (15 mg/Kg oral in gelatin capsule), the inhibition in vivo at 15 mg/kg was 100%. In addition, the inhibition in vivo at 30 mg/kg in assay [6] is 100%. In addition, the inhibition in vivo at 25 ppm in assay [1] (setting [11]) turned out to be 100%. In addition, the inhibition in vivo at 50 ppm in assay [1] (setting [12]) amounted to 100%. For the same compound, the “Change of E.P.G. 7th day” value in assay [7] (dog, Strongyloides stercoralis, 10 mg/Kg, one administration) worked out at 0. In addition, in assay [7] (dog, Strongyloides stercoralis, before 10 mg/Kg (baseline), hydrochloride), the “Change of E.P.G. Before administration” value was 2,300 and 1,800. For the same compound, the “anthelmintic effect” value in assay [7] (dogs, one administration of 10 mg/Kg) was “marked anthelmintic effect”; in assay [4] (rats), “marked anthelmintic effect”; in assay [5] (cats), “marked anthelmintic effects”. Also, the inhibition in vivo at 20 mg/kg in assay [3] (dog, 20 mg/Kg x 3, subcutaneous injection, read-out: Effect on adult filaria: Percent of worms killed) was 55%; in assay [3] (setting [8]), not below 50%. Besides, in assay [3] (dog, 20 mg/Kg x 3, subcutaneous injection), the “Number of microfilaria/20µl On 10th day after the administration” value was 0 /20µl. The “Effect on adult filaria: Number of worms killed/ Total parasite” value in assay [3] (dog, 20 mg/Kg x 3, subcutaneous injection, hydrochloride, 20 mg/kg) is 16/29 and 23/37. Moreover, in assay [3] (dog, before 20 mg/Kg x 3 subcutaneous injection (baseline), hydrochloride), the “Number of microfilaria/20µl Before administration” value is 18 /20µl and 31 /20µl. Also, the “anthelmintic effect … (mf)” value in assay [3] (setting [10]) was “marked anthelmintic effect”. Also, in assay [4] (rat, 50 mg/Kg x 5), the “Condition of fluke bodies” value was “dead”. Also, in assay [4] (rat, 50 mg/Kg x 5), the “Presence or absence of fluke egg” value was “-”. For the same compound, in assay [5] (cat, 50 mg/Kg x 5), the “Number of worms remaining in enteron” value stood at 0.
